Common to all, as to type: biochemical
One assay addresses T1, TAO (Homo sapiens, UniProt Q9UL54).
T1 sequence (Q9UL54 1-1235): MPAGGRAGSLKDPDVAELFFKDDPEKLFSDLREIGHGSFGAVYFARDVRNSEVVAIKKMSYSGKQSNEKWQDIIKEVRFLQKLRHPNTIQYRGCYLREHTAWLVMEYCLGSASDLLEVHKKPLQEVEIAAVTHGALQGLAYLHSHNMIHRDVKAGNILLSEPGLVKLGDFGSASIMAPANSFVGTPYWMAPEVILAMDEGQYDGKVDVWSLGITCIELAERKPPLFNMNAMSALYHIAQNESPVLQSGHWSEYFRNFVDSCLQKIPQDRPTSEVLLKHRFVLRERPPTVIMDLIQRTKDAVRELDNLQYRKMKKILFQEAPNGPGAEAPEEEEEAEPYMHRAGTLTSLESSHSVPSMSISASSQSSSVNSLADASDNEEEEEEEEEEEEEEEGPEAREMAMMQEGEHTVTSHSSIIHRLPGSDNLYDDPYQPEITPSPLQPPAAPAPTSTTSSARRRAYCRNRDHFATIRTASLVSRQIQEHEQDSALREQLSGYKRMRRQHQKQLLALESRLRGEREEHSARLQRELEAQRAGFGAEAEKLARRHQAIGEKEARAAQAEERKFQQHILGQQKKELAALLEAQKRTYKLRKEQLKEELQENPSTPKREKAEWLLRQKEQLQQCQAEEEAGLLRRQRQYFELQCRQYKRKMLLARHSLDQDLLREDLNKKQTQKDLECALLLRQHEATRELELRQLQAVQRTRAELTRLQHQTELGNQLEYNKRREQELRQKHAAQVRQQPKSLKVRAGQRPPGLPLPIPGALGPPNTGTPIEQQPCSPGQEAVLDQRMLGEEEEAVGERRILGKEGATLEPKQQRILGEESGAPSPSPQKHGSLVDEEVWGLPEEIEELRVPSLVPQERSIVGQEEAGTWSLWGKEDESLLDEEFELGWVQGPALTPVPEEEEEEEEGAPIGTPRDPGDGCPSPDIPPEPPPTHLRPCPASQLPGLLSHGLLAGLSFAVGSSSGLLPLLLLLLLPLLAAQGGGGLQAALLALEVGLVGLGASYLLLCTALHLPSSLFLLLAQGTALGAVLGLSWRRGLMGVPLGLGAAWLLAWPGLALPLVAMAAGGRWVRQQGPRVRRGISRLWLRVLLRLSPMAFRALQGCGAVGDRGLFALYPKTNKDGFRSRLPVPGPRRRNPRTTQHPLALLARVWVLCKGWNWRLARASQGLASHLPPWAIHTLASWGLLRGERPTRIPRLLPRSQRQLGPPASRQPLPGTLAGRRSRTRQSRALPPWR
Kind of assay: TAO Luciferase-Coupled Chemiluminescent Kinase assay (LCCA). The settings on record: 2 μM ATP, 10 μM MBP, 12 nM TAO, 2 hours; read-out: TAO inhibition IC50.

Assay [1] addresses T2, KIAA 1361 (baculovirus expressed human KIAA 1361 kinase domain 2-322) (Homo sapiens, UniProt Q7L7X3).
T2 construct: human KIAA 1361 kinase domain 2-322; made in house
T2 sequence (Q7L7X3 2-322): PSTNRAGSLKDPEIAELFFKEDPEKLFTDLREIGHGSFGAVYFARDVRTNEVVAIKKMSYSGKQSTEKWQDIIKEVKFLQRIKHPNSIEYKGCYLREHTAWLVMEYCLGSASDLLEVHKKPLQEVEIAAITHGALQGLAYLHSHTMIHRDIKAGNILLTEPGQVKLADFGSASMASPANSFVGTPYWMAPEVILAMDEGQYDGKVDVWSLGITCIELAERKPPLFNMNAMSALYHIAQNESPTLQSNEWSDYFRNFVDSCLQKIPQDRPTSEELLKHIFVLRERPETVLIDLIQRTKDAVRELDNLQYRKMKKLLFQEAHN
Kind of assay: KIAA 1361 Luciferase-Coupled Chemiluminescent Kinase assay (LCCA). The settings on record: 2 μM ATP, 10 μM MBP, 12 nM KIAA 1361, 2 hours; read-out: KIAA1361 inhibition IC50. The procedure, abridged: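 KIAA 1361 kinase domain 2-322 (baculovirus, 12 nM) with 2 μM ATP and 10 μM MBP in Tris pH 7.5, MgCl2, MnCl2; 2 h, ambient. Remaining ATP read by luciferase chemiluminescence; 10 concentrations, IC50 by four-parameter fit.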

The next assay addresses T3, JIK (Homo sapiens, UniProt Q9H2K8).
T3 construct: 6 nM JIK (baculovirus expressed human KIAA 1361 kinase domain2-318); made in house
T3 sequence (Q9H2K8 2-318): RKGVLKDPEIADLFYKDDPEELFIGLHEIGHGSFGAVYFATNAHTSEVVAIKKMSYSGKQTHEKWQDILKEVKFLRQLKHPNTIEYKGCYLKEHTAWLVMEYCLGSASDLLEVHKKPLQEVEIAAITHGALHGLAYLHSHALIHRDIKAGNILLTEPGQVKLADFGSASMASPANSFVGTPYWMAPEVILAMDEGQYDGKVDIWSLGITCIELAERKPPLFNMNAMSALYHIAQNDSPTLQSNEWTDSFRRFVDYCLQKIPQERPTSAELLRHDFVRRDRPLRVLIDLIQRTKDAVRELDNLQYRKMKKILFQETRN
Kind of assay: JIK Luciferase-Coupled Chemiluminescent Kinase assay (LCCA). The settings on record: 2 μM ATP, 10 μM MBP, 6 nM JIK, 2 hours; read-out: JIK inhibition IC50. The procedure, abridged:
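Baculovirus-expressed human KIAA 1361 kinase domain 2-318 at 6 nM, with 10 μM MBP and 2 μM ATP in Tris pH 7.5 with Mg/Mn, ran 2 h at ambient temperature. Remaining ATP was read by luciferase chemiluminescence. IC50 comes from a 10-concentration four-parameter fit.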

A value given as a limit tells only on which side of the number the result lay.

As to `O=C(CNC(=O)c1cnc2ccccc2c1)Nc1cccc2c1CCCC2` [Entry 87, N-[2-oxo-2-(5,6,7,8-tetrahydronaphthalen-1-ylamino)ethyl]quinoline-3-carboxamide], the IC50 (at TAO; in assay [1]; at JIK) was more than 5 µM throughout.

On to `O=C(CCN1CCCCC1)NCC(=O)NC1CCCc2ccccc21` (stereo not drawn) [Entry 88, N-[2-oxo-2-(1,2,3,4-tetrahydronaphthalen-1-ylamino)ethyl]-3-piperidin-1-ylpropanamide], for which the IC50 (on TAO; in assay [1]; on JIK) was more than 5 µM each time.

Regarding `O=C(CNC(=O)c1ccc(N2CCCCC2)cc1)Nc1cccc2c1CCCC2` [Entry 89, N-[2-oxo-2-(5,6,7,8-tetrahydronaphthalen-1-ylamino)ethyl]-4-piperidin-1-ylbenzamide], the IC50 (at TAO; in assay [1]; on JIK) was more than 5 µM in each case.

`O=C(CC(NC(=O)c1ccccc1)c1ccccc1)NCC(=O)Nc1nc2ccccc2s1` (stereo not drawn) [Entry 90, N-(3-{[2-(1,3-benzothiazol-2-ylamino)-2-oxoethyl]amino}-3-oxo-1-phenylpropyl)benzamide]: the IC50 at TAO was 0.05 to 0.5 µM; in assay [1], 0.05 to 0.5 µM; at JIK, less than 0.05 µM.

Turning to `O=C(CNC(=O)N1CCN(c2ccccc2)CC1)NC1CCCc2ccccc21` (stereo not drawn) [Entry 91, N-[2-oxo-2-(1,2,3,4-tetrahydronaphthalen-1-ylamino)ethyl]-4-phenylpiperazine 1-carboxamide], the IC50 (at TAO; in assay [1]; on JIK) was more than 5 µM throughout.

With `O=C(CC(NC(=O)c1ccccc1)c1ccccc1)NCC(=O)Nc1nccs1` (stereo not drawn) [Entry 92, N-(3-oxo-3-{[2-oxo-2-(1,3-thiazol-2-ylamino)ethyl]amino}-1-phenylpropyl)benzamide], the IC50 was in the range of 0.5 to 5 µM on TAO, 0.5 to 5 µM in assay [1] and 0.05 to 0.5 µM on JIK.

Regarding `Cc1csc(NC(=O)CNC(=O)CC(NC(=O)c2ccccc2)c2ccccc2)n1` (stereo not drawn) [Entry 93, N-[3-({2-[(4-methyl-1,3-thiazol-2-yl)amino]-2-oxoethyl}amino)-3-oxo-1-phenylpropyl]benzamide], the IC50 (at TAO; in assay [1]; on JIK) was more than 5 µM each time.

As to `CCc1ccc(-c2ccc(C(=O)NCC(=O)NC3CN(C(=O)OC(C)(C)C)Cc4ccccc43)cc2)cc1` (stereo not drawn) [Entry 95, 1,1-dimethylethyl 4-({N-[(4′-ethylbiphenyl-4-yl)carbonyl]glycyl}amino)-3,4-dihydroisoquinoline-2(1H)-carboxylate], the IC50 on TAO is more than 5 µM; in assay [1], more than 5 µM; on JIK, 0.5 to 5 µM.

Regarding `CCc1ccc(-c2ccc(C(=O)NCC(=O)NC3CNCc4ccccc43)cc2)cc1` (stereo not drawn) [Entry 96, 4′-ethyl-N-[2-oxo-2-(1,2,3,4-tetrahydroisoquinolin-4-ylamino)ethyl]biphenyl-4-carboxamide], the half-maximal inhibitory concentration (IC50) (at TAO; in assay [1]; on JIK) was 0.5 to 5 µM each time.

Take `O=C(CC(NC(=O)c1ccccc1)c1ccccc1)Nc1nc2ccc(O)cc2s1` (stereo not drawn) [Entry 97, N-{3-[(6-hydroxy-1,3-benzothiazol-2-yl)amino]-3-oxo-1-phenylpropyl)benzamide]: the IC50 (at TAO; in assay [1]; on JIK) was more than 5 µM each time.

Take `O=C(CC(NC(=O)c1ccccc1)c1ccccc1)NCC(=O)Nc1nc2ccc(O)cc2s1` (stereo not drawn) [Entry 98, N-[3-({2-[(6-hydroxy-1,3-benzothiazol-2-yl)amino]-2-oxoethyl}amino)-3-oxo-1-phenylpropyl]benzamide]: the IC50 on TAO was 0.05 to 0.5 µM; in assay [1], 0.05 to 0.5 µM; on JIK it was less than 0.05 µM.

“N-˜2˜-({[4-(1,1-dimethylethyl)phenyl]oxy}acetyl)-N-(1,2,3,4-tetrahydronaphthalen-1-yl)glycinamide [Entry 33]”: the IC50 was more than 5 µM on TAO, 0.5 to 5 µM in assay [1] and 0.5 to 5 µM on JIK.

The record behind these values is patent US20070208166A1, “Tao Kinase Modulators And Method Of Use” (Exelixis, Inc., priority 2003, published 2007).
